The record followed here is patent US20260001928A1 (CORTERIA PHARMACEUTICALS, priority 2022, published 2026).

For experiment [1], the target named is T1, human CRF2a receptor (Homo sapiens, UniProt Q13324).
T1 construct: expressed in transfected cells; host or cells: TeloHEAC cells
T1 sequence (Q13324 1-411): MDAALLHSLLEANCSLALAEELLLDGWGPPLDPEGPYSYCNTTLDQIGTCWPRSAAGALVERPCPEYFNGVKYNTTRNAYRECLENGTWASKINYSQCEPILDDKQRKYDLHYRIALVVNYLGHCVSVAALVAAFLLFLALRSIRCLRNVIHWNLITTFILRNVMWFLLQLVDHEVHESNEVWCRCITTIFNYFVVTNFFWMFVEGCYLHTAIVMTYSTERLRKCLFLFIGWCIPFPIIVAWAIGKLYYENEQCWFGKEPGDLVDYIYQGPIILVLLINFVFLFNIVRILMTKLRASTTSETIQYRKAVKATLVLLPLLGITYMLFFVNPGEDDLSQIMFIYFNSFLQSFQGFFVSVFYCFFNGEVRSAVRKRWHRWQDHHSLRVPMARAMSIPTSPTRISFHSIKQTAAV
The experiment can be described thus: Activity at human CRF2a receptor, cAMP functional assay in TeloHEAC cells. It counts as cell-based. The note with it: TeloHEAC cells stably expressing human CRF2a receptor, relative to urocortin 2 (100 nM = 100%). The essentials: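 TeloHEAC cells stably expressing human CRF2a (10000 cells/well, suspended in HBSS/20 mM HEPES with 2 mM IBMX) were exposed to compounds for 30 min at 37 °C. cAMP was read as the 665/620 nm fluorescence ratio after 1 h at room temperature. EC50 was derived relative to 100 nM urocortin 2, set as 100%.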

Experiment [2] has as its target T2, CFR1R receptor (Homo sapiens, UniProt P34998).
T2 construct: host or cells: CHO-K1 (clone 2)
T2 sequence (P34998 24-415): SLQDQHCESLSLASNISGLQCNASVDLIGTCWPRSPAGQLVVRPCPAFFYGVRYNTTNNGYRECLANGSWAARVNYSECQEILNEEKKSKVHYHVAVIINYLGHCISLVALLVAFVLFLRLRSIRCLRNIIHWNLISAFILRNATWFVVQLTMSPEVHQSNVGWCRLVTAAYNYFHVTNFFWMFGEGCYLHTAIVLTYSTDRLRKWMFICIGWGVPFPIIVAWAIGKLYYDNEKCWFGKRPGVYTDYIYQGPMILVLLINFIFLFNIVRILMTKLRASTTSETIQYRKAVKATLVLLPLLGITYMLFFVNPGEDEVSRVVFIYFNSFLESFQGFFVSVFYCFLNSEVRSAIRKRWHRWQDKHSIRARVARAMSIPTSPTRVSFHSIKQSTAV
The experiment in a line: Activity at anti-target CFR1R receptor, cAMP assay in CRF1R-overexpression CHO-K1 cells. It counts as cell-based. The note with it: 100% = Sauvagine at 100 nM; for EC50: cAMP. The essentials:
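Run as for the TeloHAEC line, except the full-activation control well received Sauvagine (100 nM) and final density was 4000 cells/well. Cells from clone 2 came from frozen aliquots of near-confluent cultures.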

SMILES strings stand for the structures. *1 amine or outer side, *2 acyl side, *3 side chain or, on linkers, in order; H or OH if unused. Where a SMILES comes first, the peptide text is derived from it. Side-chain parts run from the residue outwards. [ ]: non-standard residue; d: D form. The star is where a group is joined. C20 diacid = O=C(O)CCCCCCCCCCCCCCCCCCC(=O)*; C16 diacid = O=C(O)CCCCCCCCCCCCCCC(=O)*; γGlu = O=C(O)[C@H](CCC(=O)[*:2])N[*:1]; C14 diacid = O=C(O)CCCCCCCCCCCCC(=O)*; Api = NC1(C(=O)O)CCNCC1; Pentanoyl = CCCCC(=O)*; AEEA = NCCOCCOCC(=O)O; Aib = CC(C)(N)C(=O)O A value given as a limit tells only on which side of the number the result lay.

The EC50 is the midpoint of the concentration-response curve. In experiment [1], `CCCCC(=O)N[C@H](C(=O)N[C@@H](CC(C)C)C(=O)N[C@@H](CO)C(=O)N[C@@H](CC(C)C)C(=O)N[C@@H](CC(=O)O)C(=O)N[C@@H](C(=O)N1CCC[C@H]1C(=O)N[C@H](C(=O)NCC(=O)N[C@@H](CC(C)C)C(=O)N[C@@H](CCCCNC(=O)CC[C@H](NC(=O)CCCCCCCCCCCCCCCCCCC(=O)O)C(=O)O)C(=O)N[C@@H](CCCCN)C(=O)N[C@H](C(=O)N[C@@H](CC(C)C)C(=O)N[C@@H](CC(C)C)C(=O)N[C@@H](CCC(=O)O)C(=O)N[C@@H](CCC(N)=O)C(=O)N[C@@H](CCC(=O)O)C(=O)N[C@@H](CCCCN)C(=O)N[C@@H](CCC(N)=O)C(=O)N[C@@H](CCCCN)C(=O)N[C@@H](CCCCN)C(=O)N[C@@H](CCC(N)=O)C(=O)N[C@@H](CCCNC(=N)N)C(=O)N[C@@H](CCC(=O)O)C(=O)N[C@@H](CCC(N)=O)C(=O)N[C@@H](C)C(=O)N[C@@H](CCC(=O)O)C(=O)N[C@H](C(=O)N[C@@H](CC(N)=O)C(=O)NC(C)(C)C(=O)N[C@@H](CCC(N)=O)C(=O)N[C@H](C(=O)N[C@@H](CC(C)C)C(=O)N[C@@H](C)C(=O)N[C@@H](CCC(N)=O)C(=O)N[C@H](C(N)=O)C(C)C)[C@@H](C)CC)[C@@H](C)O)[C@@H](C)CC)[C@@H](C)CC)C(C)C)C(C)C` [compound 228] (Pentanoyl-VLSLD[dV]PIGLK([γGlu-C20 diacid])KILLEQEKQKKQREQAETN[Aib]QILAQV-NH2) returned an EC50 of 190 pM. Besides, in experiment [2], the “Emax (% I)” value is listed as 62 % I.

Take `CC[C@H](C)[C@H](NC(C)=O)C(=O)N[C@H](C(=O)N[C@@H](CC(C)C)C(=O)N[C@@H](CO)C(=O)N[C@@H](CC(C)C)C(=O)N[C@@H](CC(=O)O)C(=O)N[C@@H](C(=O)N1CCC[C@H]1C(=O)N[C@H](C(=O)N[C@@H](CCCCN)C(=O)N[C@@H](CC(C)C)C(=O)N[C@@H](CCCCNC(=O)CC[C@H](NC(=O)CCCCCCCCCCCCCCC(=O)O)C(=O)O)C(=O)N[C@@H](CCCCN)C(=O)N[C@H](C(=O)N[C@@H](CC(C)C)C(=O)N[C@@H](CC(C)C)C(=O)N[C@@H](CCC(=O)O)C(=O)N[C@@H](CCC(N)=O)C(=O)N[C@@H](CCC(=O)O)C(=O)N[C@@H](CCCCN)C(=O)N[C@@H](CCC(N)=O)C(=O)N[C@@H](CCCCN)C(=O)N[C@@H](CCC(=O)O)C(=O)N[C@@H](CCC(N)=O)C(=O)N[C@@H](CCCNC(=N)N)C(=O)N[C@@H](CCC(=O)O)C(=O)N[C@@H](CCC(N)=O)C(=O)N[C@@H](C)C(=O)N[C@@H](CCC(=O)O)C(=O)N[C@H](C(=O)N[C@@H](CC(N)=O)C(=O)NC(C)(C)C(=O)N[C@@H](CCC(N)=O)C(=O)N[C@H](C(=O)N[C@@H](CC(C)C)C(=O)N[C@@H](C)C(=O)N[C@@H](CCC(N)=O)C(=O)N[C@H](C(N)=O)C(C)C)[C@@H](C)CC)[C@@H](C)O)[C@@H](C)CC)[C@@H](C)CC)C(C)C)C(C)C` [compound 168] (Ac-IVLSLD[dV]PIKLK([γGlu-C16 diacid])KILLEQEKQKEQREQAETN[Aib]QILAQV-NH2): in experiment [1], the response was half-maximal at 800 pM (EC50). Further, in experiment [2], the “Emax (% I)” value is 3 % I and the EC50 is over 250000 pM.

As for `CC[C@H](C)[C@H](NC(C)=O)C(=O)N[C@H](C(=O)N[C@@H](CC(C)C)C(=O)N[C@@H](CO)C(=O)N[C@@H](CC(C)C)C(=O)N[C@@H](CC(=O)O)C(=O)N[C@@H](C(=O)N1CCC[C@H]1C(=O)N[C@H](C(=O)N[C@@H](CCCCN)C(=O)N[C@@H](CC(C)C)C(=O)N[C@@H](CCCCNC(=O)COCCOCCNC(=O)COCCOCCNC(=O)CC[C@H](NC(=O)CC[C@H](NC(=O)CCCCCCCCCCCCC(=O)O)C(=O)O)C(=O)O)C(=O)N[C@@H](CCCCN)C(=O)N[C@H](C(=O)N[C@@H](CC(C)C)C(=O)N[C@@H](CC(C)C)C(=O)N[C@@H](CCC(=O)O)C(=O)N[C@@H](CCC(N)=O)C(=O)N[C@@H](CCC(=O)O)C(=O)N[C@@H](CCCCN)C(=O)N[C@@H](CCC(N)=O)C(=O)N[C@@H](CCCCN)C(=O)N[C@@H](CCCCN)C(=O)N[C@@H](CCC(N)=O)C(=O)N[C@@H](CCCNC(=N)N)C(=O)N[C@@H](CCC(=O)O)C(=O)N[C@@H](CCC(N)=O)C(=O)N[C@@H](C)C(=O)N[C@@H](CCC(=O)O)C(=O)N[C@H](C(=O)N[C@@H](CC(N)=O)C(=O)NC1(C(=O)N[C@@H](CCC(N)=O)C(=O)N[C@H](C(=O)N[C@@H](CC(C)C)C(=O)N[C@@H](C)C(=O)N[C@@H](CCC(N)=O)C(=O)N[C@H](C(N)=O)C(C)C)[C@@H](C)CC)CCNCC1)[C@@H](C)O)[C@@H](C)CC)[C@@H](C)CC)C(C)C)C(C)C` [compound 175] (Ac-IVLSLD[dV]PIKLK([AEEA-AEEA-γGlu-γGlu-C14 diacid])KILLEQEKQKKQREQAETN[Api]QILAQV-NH2), the EC50 in experiment [1] worked out at 18900 pM. Also, in experiment [2], the “Emax (% I)” value is 5 % I and the EC50 was over 250000 pM.

Consider `CC[C@H](C)[C@H](NC(C)=O)C(=O)N[C@H](C(=O)N[C@@H](CC(C)C)C(=O)N[C@@H](CO)C(=O)N[C@@H](CC(C)C)C(=O)N[C@@H](CC(=O)O)C(=O)N[C@@H](C(=O)N1CCC[C@H]1C(=O)N[C@H](C(=O)N[C@@H](CCCCN)C(=O)N[C@@H](CC(C)C)C(=O)N[C@@H](CCCCNC(=O)CC[C@H](NC(=O)CCCCCCCCCCCCCCC(=O)O)C(=O)O)C(=O)N[C@@H](CCCCN)C(=O)N[C@H](C(=O)N[C@@H](CC(C)C)C(=O)N[C@@H](CC(C)C)C(=O)N[C@@H](CCC(=O)O)C(=O)N[C@@H](CCC(N)=O)C(=O)N[C@@H](CCC(=O)O)C(=O)N[C@@H](CCCCN)C(=O)N[C@@H](CCC(N)=O)C(=O)N[C@@H](CCCCN)C(=O)NC(C)(C)C(=O)N[C@@H](CCC(N)=O)C(=O)N[C@@H](CCCNC(=N)N)C(=O)N[C@@H](CCC(=O)O)C(=O)N[C@@H](CCC(N)=O)C(=O)N[C@@H](C)C(=O)N[C@@H](CCC(=O)O)C(=O)N[C@H](C(=O)N[C@@H](CC(N)=O)C(=O)NC(C)(C)C(=O)N[C@@H](CCC(N)=O)C(=O)N[C@H](C(=O)N[C@@H](CC(C)C)C(=O)N[C@@H](C)C(=O)N[C@@H](CCC(N)=O)C(=O)N[C@H](C(N)=O)C(C)C)[C@@H](C)CC)[C@@H](C)O)[C@@H](C)CC)[C@@H](C)CC)C(C)C)C(C)C` [compound 162] (Ac-IVLSLD[dV]PIKLK([γGlu-C16 diacid])KILLEQEKQK[Aib]QREQAETN[Aib]QILAQV-NH2), for which the half-maximal effective concentration (EC50) in experiment [1] is 490 pM; in experiment [2] it was over 250000 pM. The “Emax (% I)” value in experiment [2] is on record as 0 % I.

`CC[C@H](C)[C@H](NC(C)=O)C(=O)N[C@H](C(=O)N[C@@H](CC(C)C)C(=O)N[C@@H](CO)C(=O)N[C@@H](CC(C)C)C(=O)N[C@@H](CC(=O)O)C(=O)N[C@@H](C(=O)N1CCC[C@H]1C(=O)N[C@H](C(=O)N[C@@H](CCCCN)C(=O)N[C@@H](CC(C)C)C(=O)N[C@@H](CCCCNC(=O)CC[C@H](NC(=O)CCCCCCCCCCCCCCCCCCC(=O)O)C(=O)O)C(=O)N[C@@H](CCCCN)C(=O)N[C@H](C(=O)N[C@@H](CC(C)C)C(=O)N[C@@H](CC(C)C)C(=O)N[C@@H](CCC(=O)O)C(=O)N[C@@H](CCC(N)=O)C(=O)N[C@@H](CCC(=O)O)C(=O)N[C@@H](CCCCN)C(=O)N[C@@H](CCC(N)=O)C(=O)N[C@@H](CCCCN)C(=O)N[C@@H](CCCCN)C(=O)N[C@@H](CCC(N)=O)C(=O)N[C@@H](CCCNC(=N)N)C(=O)N[C@@H](CCC(=O)O)C(=O)N[C@@H](CCC(N)=O)C(=O)N[C@@H](C)C(=O)N[C@@H](CCC(=O)O)C(=O)N[C@H](C(=O)N[C@@H](CC(N)=O)C(=O)NC1(C(=O)N[C@@H](CCC(N)=O)C(=O)N[C@H](C(=O)N[C@@H](CC(C)C)C(=O)N[C@@H](C)C(=O)N[C@@H](CCC(N)=O)C(=O)N[C@H](C(N)=O)C(C)C)[C@@H](C)CC)CCNCC1)[C@@H](C)O)[C@@H](C)CC)[C@@H](C)CC)C(C)C)C(C)C` [compound 207] (Ac-IVLSLD[dV]PIKLK([γGlu-C20 diacid])KILLEQEKQKKQREQAETN[Api]QILAQV-NH2) had an EC50 in experiment [1] of 120 pM. Besides, the “Emax (% I)” value in experiment [2] amounted to 65 % I.
